# Reference: US7118895B2, “Process for producing aglycon by using diglycosidase and flavor-improved food containing the aglycon and converting agent to be used in the process” (Amano Enzyme Inc., priority 2000, dated 2006)
# Test system: Crude diglycosidase
# Assay: Examination of temperature in the conversion into isoflavone aglycons by diglycosidase using soybean materials
# Type: biochemical, Penicillium multicolor IAM7153
# Parameters: Decomposition efficiency of glycitin family in roasted soy flour / Decomposition efficiency of daidzin family in roasted soy flour / Decomposition efficiency of genistin family in soymilk / Decomposition efficiency of daidzin family in soymilk / Decomposition efficiency of glycitin family in defatted soybean / Decomposition efficiency of daidzin family in defatted soybean: concentration or dose not given beside the values
# Protocol: Into 400 μL of 20 mM acetate buffer of pH 4.0 was suspended 50 mg of each of various soybean materials (roasted soy flour (manufactured by Fuji Shokuryo K.K.), soymilk (manufactured by Gitoh Shokuhin K.K.), defatted soybean (manufactured by Fuji Seiyu K.K.), concentrated soybean protein (manufactured by Fuji Seiyu K.K.)), whereby a substrate solution was prepared. Crude diglycosidase was diluted with 20 mM acetate buffer of pH 4.0 to be the glycosidase activity of 1.88 AU/mL. Fifty μL of the enzyme solution was mixed with the substrate solution and the whole was reacted at 80, 65, 55, 45, 37, or 30° C. at the total volume of 500 μL. To the reaction mixture was added 700 μL of ethanol after 0, 1, 3, and 6 hours of the reaction. After stirring and ultrasonication, the mixture was subjected to centrifugal separation at 15,000 rpm and 4° C. for 10 minutes. The supernatant was filtered through a filter and the existence of isoflavone glycosides and aglycon isoflavones contained in the reaction mixture was detected by HLPC.
# [1] = 30° C., heat treatment of enzyme no, reaction time 0 h
# [2] = 30° C., heat treatment of enzyme no, reaction time 1 h
# [3] = 30° C., heat treatment of enzyme no, reaction time 3 h
# [4] = 30° C., heat treatment of enzyme no, reaction time 6 h
# [5] = 30° C., heat treatment of enzyme yes, reaction time 6 h
# [6] = 45° C., heat treatment of enzyme no, reaction time 0 h
# [7] = 45° C., heat treatment of enzyme no, reaction time 1 h
# [8] = 45° C., heat treatment of enzyme no, reaction time 3 h
# [9] = 45° C., heat treatment of enzyme no, reaction time 6 h
# [10] = 45° C., heat treatment of enzyme yes, reaction time 6 h
# [11] = 45 °C, heat treatment of enzyme: no, 0 h
# [12] = 45 °C, heat treatment of enzyme: no, 1 h
# [13] = 45 °C, heat treatment of enzyme: no, 3 h
# [14] = 45 °C, heat treatment of enzyme: no, 6 h
# [15] = 45 °C, heat treatment of enzyme: yes, 6 h
# [16] = 55° C., heat treatment of enzyme no, reaction time 0 h
# [17] = 55° C., heat treatment of enzyme no, reaction time 1 h
# [18] = 55° C., heat treatment of enzyme no, reaction time 3 h
# [19] = 55° C., heat treatment of enzyme no, reaction time 6 h
# [20] = 55° C., heat treatment of enzyme yes, reaction time 6 h
# [21] = 55 °C, heat treatment of enzyme: no, 0 h
smiles,measurement,setting,value
O=c1c(-c2ccc(O)cc2)coc2cc(O)ccc12 [daidzein],Decomposition efficiency of daidzin family in concentrated soybean protein,[1],3.0%
same,Decomposition efficiency of daidzin family in defatted soybean,[1],14.5%
same,Decomposition efficiency of daidzin family in concentrated soybean protein,[2],26.2%
same,Decomposition efficiency of daidzin family in defatted soybean,[2],53.4%
same,Decomposition efficiency of daidzin family in concentrated soybean protein,[3],42.7%
same,Decomposition efficiency of daidzin family in defatted soybean,[3],54.8%
same,Decomposition efficiency of daidzin family in concentrated soybean protein,[4],52.5%
same,Decomposition efficiency of daidzin family in defatted soybean,[4],54.9%
same,Decomposition efficiency of daidzin family in concentrated soybean protein,[5],3.2%
same,Decomposition efficiency of daidzin family in defatted soybean,[5],54.6%
same,Decomposition efficiency of daidzin family in soymilk,"30 °C, heat treatment of enzyme: no, 0 h",9.1%
same,Decomposition efficiency of daidzin family in soymilk,"30 °C, heat treatment of enzyme: no, 1 h",41.8%
same,Decomposition efficiency of daidzin family in soymilk,"30 °C, heat treatment of enzyme: no, 3 h",47.2%
same,Decomposition efficiency of daidzin family in soymilk,"30 °C, heat treatment of enzyme: no, 6 h",53.8%
same,Decomposition efficiency of daidzin family in soymilk,"30 °C, heat treatment of enzyme: yes, 6 h",9.1%
same,Decomposition efficiency of daidzin family in roasted soy flour,"35 °C, heat treatment of enzyme: no, 0 h",3.6%
same,Decomposition efficiency of daidzin family in roasted soy flour,"35 °C, heat treatment of enzyme: no, 1 h",41.4%
same,Decomposition efficiency of daidzin family in roasted soy flour,"35 °C, heat treatment of enzyme: no, 3 h",54.7%
same,Decomposition efficiency of daidzin family in roasted soy flour,"35 °C, heat treatment of enzyme: no, 6 h",60.4%
same,Decomposition efficiency of daidzin family in roasted soy flour,"35 °C, heat treatment of enzyme: yes, 6 h",5.8%
same,Decomposition efficiency of daidzin family in concentrated soybean protein,[6],3.1%
same,Decomposition efficiency of daidzin family in defatted soybean,[6],16.2%
same,Decomposition efficiency of daidzin family in concentrated soybean protein,[7],45.3%
same,Decomposition efficiency of daidzin family in defatted soybean,[7],54.5%
same,Decomposition efficiency of daidzin family in concentrated soybean protein,[8],48.8%
same,Decomposition efficiency of daidzin family in defatted soybean,[8],56.3%
same,Decomposition efficiency of daidzin family in concentrated soybean protein,[9],55.5%
same,Decomposition efficiency of daidzin family in defatted soybean,[9],58.3%
same,Decomposition efficiency of daidzin family in concentrated soybean protein,[10],5.7%
same,Decomposition efficiency of daidzin family in defatted soybean,[10],55.7%
same,Decomposition efficiency of daidzin family in roasted soy flour,[11],3.7%
same,Decomposition efficiency of daidzin family in soymilk,[11],8.9%
same,Decomposition efficiency of daidzin family in roasted soy flour,[12],53.5%
same,Decomposition efficiency of daidzin family in soymilk,[12],43.0%
same,Decomposition efficiency of daidzin family in roasted soy flour,[13],59.4%
same,Decomposition efficiency of daidzin family in soymilk,[13],52.0%
same,Decomposition efficiency of daidzin family in roasted soy flour,[14],66.2%
same,Decomposition efficiency of daidzin family in soymilk,[14],62.8%
same,Decomposition efficiency of daidzin family in roasted soy flour,[15],8.1%
same,Decomposition efficiency of daidzin family in soymilk,[15],8.2%
same,Decomposition efficiency of daidzin family in concentrated soybean protein,[16],3.0%
same,Decomposition efficiency of daidzin family in defatted soybean,[16],14.5%
same,Decomposition efficiency of daidzin family in concentrated soybean protein,[17],55.0%
same,Decomposition efficiency of daidzin family in defatted soybean,[17],55.0%
same,Decomposition efficiency of daidzin family in concentrated soybean protein,[18],59.4%
same,Decomposition efficiency of daidzin family in defatted soybean,[18],57.3%
same,Decomposition efficiency of daidzin family in concentrated soybean protein,[19],62.3%
same,Decomposition efficiency of daidzin family in defatted soybean,[19],59.7%
same,Decomposition efficiency of daidzin family in concentrated soybean protein,[20],3.2%
same,Decomposition efficiency of daidzin family in defatted soybean,[20],55.9%
same,Decomposition efficiency of daidzin family in roasted soy flour,[21],3.7%
same,Decomposition efficiency of daidzin family in soymilk,[21],8.6%
